Laboratory results: patent publication US7101967B2, “Transport vectors” (priority 1998, dated 2006)
Square brackets hold non-standard residues; d marks the D form. Peptide text beside a SMILES is read from it. * marks the point of attachment. X3 = COc1cc([C@@H]2c3cc4c(cc3[C@@H](Nc3ccc(NC(=O)CCN5C(=O)CC(*)C5=O)cc3)[C@H]3COC(=O)[C@H]23)OCO4)cc(O)c1O; Biotin = O=C1N[C@H]2[C@H](CS[C@H]2CCCCC(=O)*)N1; βAla = NCCC(=O)O

System: not listed separately
Assay: Maximum tolerated dose by iv administration in mice
Conditions: mouse, in vivo

Row | Compound | MTD [mg/kg]
1 | CC[C@H](C)[C@H](NC(=O)[C@H](CCCCN)NC(=O)[C@@H](NC(=O)[C@H](CCC(N)=O)NC(=O)[C@H](CCCNC(=N)N)NC(=O)[C@@H](N)CSC1CC(=O)N(CCC(=O)O[C@H]2c3cc4c(cc3[C@@H](c3cc(OC)c(OC)c(OC)c3)[C@H]3C(=O)OC[C@@H]32)OCO4)C1=O)[C@@H](C)CC)C(=O)N[C@@H](Cc1c[nH]c2ccccc12)C(=O)N[C@@H](Cc1ccccc1)C(=O)N[C@@H](CCC(N)=O)C(=O)N[C@@H](CC(N)=O)C(=O)N[C@@H](CCCNC(=N)N)C(=O)N[C@@H](CCCNC(=N)N)C(=O)N[C@@H](CCSC)C(=O)N[C@@H](CCCCN)C(=O)N[C@@H](Cc1c[nH]c2ccccc12)C(=O)N[C@@H](CCCCN)C(=O)N[C@@H](CCCCN)C(=O)NCC(=O)N[C@@H](CS)C(=O)NCC(N)=O (some centres unmarked) [podophyllotoxin, 16-mer] | ~40

System: live cells
Assay: Visualisation of cell internalisation (biotin-avidin and direct fluorescein probe)
Assay type: cell-based
Conditions: FIG. 4, visualisation in cells
Protocol: This assay permitted the study and measurement of cell internalisation without the possibility of observing artefacts emanating from the cell manipulations necessary with the biotinylated peptides. […] (squares when t=10 mins, diamonds when t=60 mins). […] Nuceolar accumulation may be due to non-specific binding of the positively charged peptide to DNA.

Row | Compound | subcellular localisation after internalisation
2 | Biotinyl-βAla-Arg-Gln-Ile-Lys-Ile-Trp-Phe-Gln-Asn-Arg-Arg-Met-Lys-Trp-Lys-Lys-NH2 (ARQIKIWFQNRRMKWKK; N-terminal biotin, beta-residue; C-terminal amide; MOD_RES (1) bAla) [Peptide 1] | localises predominantly to the cell nucleus and accumulates in the nucleoli, with lesser concentration in the cytosol

System: HaCaT cells
Assay: Peptide internalisation assay (biotinylated peptides, alkaline phosphatase-streptavidin detection)
Assay type: cell-based, human
Conditions: FIG. 2, one peptide concentration, same pattern regardless of concentration
Protocol: HaCaT cells (immortalised ‘normal’ human […] cell line) were seeded into 96-well plates at 50,000 cells per well in medium (DMEM) with 10% foetal calf serum and antibiotics. After an overnight incubation, peptides were prepared as dilution series in cell medium and were added to the cells. At the end of the incubation period (usually 10 and 60 min), the cells were rinsed three times with PBS and fixed for 20 min at −20° C. in EtOH/AcOH (95:5). After the fixation, the cells were made permeable by treatment for 10 min with PBS containing 3% Tween-20. Endogenous alkaline phosphatase activity was neutralised by incubation at 65° C. for 60 min. Cells were incubated for 30 min at room temperature with alkaline phosphatase-streptavidin (Pierce Chemical Co., Rockford, Ill., USA) in 0.1% BSA in PBS and washed extensively with PBS. Freshly prepared substrate solution (1 mg/mL p-nitrophenyl phosphate disodium (Pierce Chemical Co.) in 10 mM diethanolamine (pH 9.5) containing 0.5 mM MgCl, was added to each well and incubated until sufficient colour had developed (approximately 30 min.). The enzymatic reaction was stopped by adding 50 μL 2 M aq NaOH to each well. Alkaline phosphatase activity was measured spectrophotometrically at 405 nm.

Row | Compound | degree of internalisation / membrane translocation relative to control peptide 1
3 | Biotinyl-βAla-Arg-Met-Lys-Trp-Lys-Lys-NH2 (Biotin-[βAla]RMKWKK-NH2; SMILES CSCC[C@H](NC(=O)[C@H](CCCNC(=N)N)NC(=O)CCNC(=O)CCCC[C@@H]1SC[C@@H]2NC(=O)N[C@@H]21)C(=O)N[C@@H](CCCCN)C(=O)N[C@@H](Cc1c[nH]c2ccccc12)C(=O)N[C@@H](CCCCN)C(=O)N[C@@H](CCCCN)C(N)=O) [Peptide 20] | severe drop
4 | Biotinyl-βAla-Ile-Trp-Phe-Gln-Asn-Arg-Arg-Met-Lys-Trp-Lys-Lys-NH2 (Biotin-[βAla]IWFQNRRMKWKK-NH2; SMILES CC[C@H](C)[C@H](NC(=O)CCNC(=O)CCCC[C@@H]1SC[C@@H]2NC(=O)N[C@@H]21)C(=O)N[C@@H](Cc1c[nH]c2ccccc12)C(=O)N[C@@H](Cc1ccccc1)C(=O)N[C@@H](CCC(N)=O)C(=O)N[C@@H](CC(N)=O)C(=O)N[C@@H](CCCNC(=N)N)C(=O)N[C@@H](CCCNC(=N)N)C(=O)N[C@@H](CCSC)C(=O)N[C@@H](CCCCN)C(=O)N[C@@H](Cc1c[nH]c2ccccc12)C(=O)N[C@@H](CCCCN)C(=O)N[C@@H](CCCCN)C(N)=O) [Peptide 14] | only about half of the original signal was left
5 | Biotinyl-βAla-Trp-Phe-Gln-Asn-Arg-Arg-Met-Lys-Trp-Lys-Lys-NH2 (Biotin-[βAla]WFQNRRMKWKK-NH2; SMILES CSCC[C@H](NC(=O)[C@H](CCCNC(=N)N)NC(=O)[C@H](CCCNC(=N)N)NC(=O)[C@H](CC(N)=O)NC(=O)[C@H](CCC(N)=O)NC(=O)[C@H](Cc1ccccc1)NC(=O)[C@H](Cc1c[nH]c2ccccc12)NC(=O)CCNC(=O)CCCC[C@@H]1SC[C@@H]2NC(=O)N[C@@H]21)C(=O)N[C@@H](CCCCN)C(=O)N[C@@H](Cc1c[nH]c2ccccc12)C(=O)N[C@@H](CCCCN)C(=O)N[C@@H](CCCCN)C(N)=O) [Peptide 15] | only about half of the original signal was left

Same assay, conditions: assay of section 1.3

Row | Compound | internalised into cells / active in the cell internalisation assay (qualitative)
6 | KKWKORR | internalised into cells
7 | KRMKWKK | internalised into cells
8 | NRRMKWKK | internalised into cells
9 | QNRRMKWKK | internalised into cells
10 | RKMKWKK | internalised into cells
11 | RORKWKK | internalised into cells
12 | RREKWKK | internalised into cells
13 | RRMKKWK | internalised into cells
14 | RRMKQKK | internalised into cells
15 | RRMKWFK | internalised into cells
16 | RRMKWKK | internalised into cells
17 | RRMWKKK | internalised into cells
18 | RROKKWK | internalised into cells
19 | RROKWKK [O = norleucine] | internalised into cells
20 | RROWKKK | internalised into cells
21 | RRQKWKK | internalised into cells

System: purified recombinant human topoisomerase II
Assay: Topoisomerase II inhibition assay (cleavage and relaxation of plasmid DNA)
Assay type: biochemical
Set-up: key: I denotes inhibition of relaxation of supercoiled plasmid by topoisomerase II; C denotes accumulation of topoisomerase II reaction intermediate
Conditions: test compound at 1 mM, 100 μM, or 10 μM final concentration; cleavage and relaxation assays
Protocol: Topoisomerase II assay—Plasmid DNA (0.3 μg) was incubated at 37° C. with 4 units of purified recombinant human topoisomerase II in cleavage buffer (30 mM Tris.HCl, pH 7.6, 60 mM NaCl, 3 mM ATP, 15 mM mercaptoethanol, 8 mM MgCl2) with or without the addition of test compound (at 1 mM, 100 μM, or 10 μM final concentration). Reactions were stopped by the immediate addition of SDS (1% w/v final). Samples were treated with proteinase K (30 min at 37° C.) and extracted twice with an equal volume of 42:1 CHCl3/i-amyl alcohol. After adding loading dye samples were loaded to a 4×TAE, 1% agarose gel containing […] ethidium bromide and electrophoresed for 16-24 h. Topoisomerase II inhibition was judged by the production of linear plasmid DNA, representing trapped cleavage intermediate, and by the ratio of substrate (spercoiled DNA) to product (relaxed DNA). A relaxation assay was performed identically, except that the reaction buffer was optimised for the detection of catalysis rather than cleavage i.e. only 2 units of enzyme were used per sample. The reaction buffer was 50 mM Tris.HCl, pH 8, 120 mM KCl, 0.5 mM ATP, 0.5 mM dithiothreitol, 10 mM MgCl2. Topoisomerase II inhibition was judged by the ratio of substrate (supercoiled DNA) to product (relaxed DNA).

Row | Compound | Activity observed (topoisomerase II)
22 | COc1cc(C2c3cc4c(cc3C(Nc3ccc(N)cc3)C3COC(=O)C23)OCO4)cc(OC)c1O (centres unmarked) [4′-Demethyl-4-(4″-aminoanilino)epipodophyllotoxin, reference compound] | I
23 | COc1cc([C@@H]2c3cc4c(cc3[C@@H](Nc3ccc(NC(=O)CCN5C(=O)CC(SC[C@H](N)C(=O)NCCC(=O)N[C@@H](CCCNC(=N)N)C(=O)N[C@@H](CCCNC(=N)N)C(=O)N[C@@H](CCSC)C(=O)N[C@@H](CCCCN)C(=O)N[C@@H](Cc6c[nH]c7ccccc67)C(=O)N[C@@H](CCCCN)C(=O)N[C@@H](CCCCN)C(N)=O)C5=O)cc3)[C@H]3COC(=O)[C@H]23)OCO4)cc(O)c1O (stereo partly drawn) [4′-Demethyl-4-[4″-aminoanilino-(succinimidopropionoyl)-(H-Cys-βAla-Arg-Arg-Met-Lys-Trp-Lys-Lys-NH2)]epipodophyllotoxin] (H-C(X3)[βAla]RRMKWKK-NH2) | I
